Test results published in publication PMC7979765, “trans-Translation inhibitors bind to a novel site on the ribosome and clear Neisseria gonorrhoeae in vivo” (Nature Communications, 2021).
In brackets after ≈: the same amount, converted by molar mass. Several values for one entry are separate records, joined by “and”; a condition that tells them apart may be missing. Equal entries are not always repeated.

What was measured:
[1] = system: Neisseria gonorrhoeae; assay: MIC, microbroth dilution, G77L medium; format: cell-based
[2] = target: T1, Adrenergic α2A (Homo sapiens, UniProt P08913); assay: Receptor Profiling 203630; format: binding
T1 construct: purchased Eurofins Discovery Services (Panlabs safety panel)
Procedure: (§1) Several in vitro selectivity assays were performed at Eurofins Discovery Services using established methods and controls that behaved as expected (Supplementary Tables 5 and 6). […] For receptor panel profiling, MBX-4132 was evaluated at 10 μM and activity of >50% (agonist or antagonist; note that negative % inhibition indicates agonism) was scored as active.

[3] = target: T2, Androgen (testosterone) (Homo sapiens, UniProt P10275); assay: Receptor Profiling 206000; format: binding
T2 construct: purchased Eurofins Discovery Services (Panlabs safety panel)
Procedure: as §1

[4] = Liver microsome stability, murine; format: in vitro ADME, mouse
How it was run: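 Compounds incubated with liver microsomes plus NADPH over 30 min; parent remaining quantified by reverse-phase LC/MS. Half-life from linear regression over several time points.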

[5] = target: CYP3A (Homo sapiens, UniProt P08684); assay: Cyp inhibition assays 4873, 4872; format: in vitro ADME
Procedure: as §1

CYP3A, sequence (P08684 2-503): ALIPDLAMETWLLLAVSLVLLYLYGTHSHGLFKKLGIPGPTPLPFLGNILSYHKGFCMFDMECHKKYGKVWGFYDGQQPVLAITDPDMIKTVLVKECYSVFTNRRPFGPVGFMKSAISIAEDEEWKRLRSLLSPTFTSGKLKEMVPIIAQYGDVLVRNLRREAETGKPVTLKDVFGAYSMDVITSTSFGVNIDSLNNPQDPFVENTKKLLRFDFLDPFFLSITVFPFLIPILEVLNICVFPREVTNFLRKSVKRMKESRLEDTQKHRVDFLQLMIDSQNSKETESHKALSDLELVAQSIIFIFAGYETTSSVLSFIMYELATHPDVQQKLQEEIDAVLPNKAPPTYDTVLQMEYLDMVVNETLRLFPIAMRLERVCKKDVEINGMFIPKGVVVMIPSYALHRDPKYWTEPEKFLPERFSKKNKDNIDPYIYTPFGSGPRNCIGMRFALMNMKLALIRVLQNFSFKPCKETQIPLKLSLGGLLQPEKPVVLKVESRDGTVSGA
T1 sequence (P08913 whole entry): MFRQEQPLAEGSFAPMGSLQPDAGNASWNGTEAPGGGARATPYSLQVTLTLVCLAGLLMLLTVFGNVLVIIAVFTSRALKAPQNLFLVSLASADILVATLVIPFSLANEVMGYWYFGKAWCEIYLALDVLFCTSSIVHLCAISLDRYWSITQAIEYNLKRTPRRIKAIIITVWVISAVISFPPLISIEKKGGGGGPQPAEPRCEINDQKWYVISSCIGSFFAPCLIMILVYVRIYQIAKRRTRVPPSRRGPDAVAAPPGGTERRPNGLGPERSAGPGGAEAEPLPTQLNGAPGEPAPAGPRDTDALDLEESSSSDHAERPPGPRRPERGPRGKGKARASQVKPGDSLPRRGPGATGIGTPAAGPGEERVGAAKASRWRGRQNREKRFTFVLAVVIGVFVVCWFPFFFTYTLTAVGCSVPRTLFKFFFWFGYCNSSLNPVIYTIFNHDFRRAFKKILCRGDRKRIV
T2 sequence (P10275 whole entry): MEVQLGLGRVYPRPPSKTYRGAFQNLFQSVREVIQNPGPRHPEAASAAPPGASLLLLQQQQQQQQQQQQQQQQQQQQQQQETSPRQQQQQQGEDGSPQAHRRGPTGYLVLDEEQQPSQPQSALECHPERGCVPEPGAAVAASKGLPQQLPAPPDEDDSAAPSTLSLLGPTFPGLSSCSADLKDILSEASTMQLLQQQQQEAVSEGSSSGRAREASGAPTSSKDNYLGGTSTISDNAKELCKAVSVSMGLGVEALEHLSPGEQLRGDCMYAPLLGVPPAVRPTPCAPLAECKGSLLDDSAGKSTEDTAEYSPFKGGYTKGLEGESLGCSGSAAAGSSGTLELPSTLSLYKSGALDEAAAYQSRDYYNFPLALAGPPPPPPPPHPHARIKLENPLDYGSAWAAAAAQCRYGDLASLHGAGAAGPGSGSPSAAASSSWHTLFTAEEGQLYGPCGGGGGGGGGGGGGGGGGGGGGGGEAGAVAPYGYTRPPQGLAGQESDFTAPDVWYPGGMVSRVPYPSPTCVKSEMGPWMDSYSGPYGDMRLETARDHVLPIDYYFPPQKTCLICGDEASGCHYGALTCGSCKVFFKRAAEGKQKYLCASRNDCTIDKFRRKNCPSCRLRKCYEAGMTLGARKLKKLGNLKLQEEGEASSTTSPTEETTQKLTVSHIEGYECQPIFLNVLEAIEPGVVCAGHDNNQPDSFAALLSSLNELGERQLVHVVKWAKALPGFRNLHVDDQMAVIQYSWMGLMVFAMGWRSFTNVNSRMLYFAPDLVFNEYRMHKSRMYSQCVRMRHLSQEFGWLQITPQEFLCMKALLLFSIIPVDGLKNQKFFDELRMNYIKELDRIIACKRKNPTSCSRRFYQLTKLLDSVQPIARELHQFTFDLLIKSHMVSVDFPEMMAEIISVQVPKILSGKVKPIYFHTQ

O=C(Nc1nnc(-c2ccc(F)cc2)o1)N1CCc2ccccc2C1 [MBX-4132]
MIC ([1]; Neisseria gonorrhoeae, strain CDC-0190, replicates 1-3): 0.169 µg/mL (≈ 0.499 µM)
MIC ([1]; Neisseria gonorrhoeae, strain HO41, PEN, TET, CFM, CRO, LVX): 0.17 µg/mL (≈ 0.502 µM)
MIC ([1]; Neisseria gonorrhoeae, strain HO41, replicates 1-3): 0.169 µg/mL (≈ 0.499 µM)
MIC ([1]; Neisseria gonorrhoeae, strain MMX 6744, broth dilution by Micromyx): 0.27 µg/mL (≈ 0.798 µM)
MIC ([1]; Neisseria gonorrhoeae, strain MMX 6746, CIP, by Micromyx): 0.14 µg/mL (≈ 0.414 µM)
MIC ([1]; Neisseria gonorrhoeae, strain MMX 6752, TET, by Micromyx): 0.27 µg/mL (≈ 0.798 µM)
MIC ([1]; Neisseria gonorrhoeae, strain MMX 6753, by Micromyx): 0.14 µg/mL (≈ 0.414 µM)
MIC ([1]; Neisseria gonorrhoeae, strain MMX 6757, by Micromyx): 0.07 µg/mL (≈ 0.207 µM)
MIC ([1]; Neisseria gonorrhoeae, strain MMX 6758, by Micromyx): 0.27 µg/mL (≈ 0.798 µM)
MIC ([1]; Neisseria gonorrhoeae, strain MMX 6762, by Micromyx): 0.27 µg/mL (≈ 0.798 µM)
MIC ([1]; Neisseria gonorrhoeae, strain MMX 6767, by Micromyx): 0.14 µg/mL (≈ 0.414 µM)
MIC ([1]; Neisseria gonorrhoeae, strain MMX 6771, TET, by Micromyx): 0.14 µg/mL (≈ 0.414 µM)
MIC ([1]; Neisseria gonorrhoeae, strain MMX 6793, CIP, by Micromyx): 0.14 µg/mL (≈ 0.414 µM)
MIC ([1]; Neisseria gonorrhoeae, strain MMX 6797, CIP, TET, by Micromyx): 0.14 µg/mL (≈ 0.414 µM)
MIC ([1]; Neisseria gonorrhoeae, strain MMX 6803, CIP, by Micromyx): 0.27 µg/mL (≈ 0.798 µM)
MIC ([1]; Neisseria gonorrhoeae, strain MMX 6812, CIP, by Micromyx): 0.27 µg/mL (≈ 0.798 µM)
MIC ([1]; Neisseria gonorrhoeae, strain MMX 6818, CIP, by Micromyx): 0.27 µg/mL (≈ 0.798 µM)
MIC ([1]; Neisseria gonorrhoeae, strain MMX 6819, CIP, by Micromyx): 0.14 µg/mL (≈ 0.414 µM)
MIC ([1]; Neisseria gonorrhoeae, strain MMX 6879, by Micromyx): 0.14 µg/mL (≈ 0.414 µM)
MIC ([1]; Neisseria gonorrhoeae, strain MMX 6921, CIP, by Micromyx): 0.53 µg/mL (≈ 1.57 µM)
MIC ([1]; Neisseria gonorrhoeae, strain MMX 6922, CIP, by Micromyx): 0.53 µg/mL (≈ 1.57 µM)
MIC ([1]; Neisseria gonorrhoeae, strain MMX 6983, CIP, by Micromyx): 0.53 µg/mL (≈ 1.57 µM)
MIC ([1]; Neisseria gonorrhoeae, strain MMX 6989, by Micromyx): 0.14 µg/mL (≈ 0.414 µM)
MIC ([1]; Neisseria gonorrhoeae, strain MMX 6990, CIP, by Micromyx): 0.14 µg/mL (≈ 0.414 µM)
MIC ([1]; Neisseria gonorrhoeae, strain MMX 6992, by Micromyx): 0.14 µg/mL (≈ 0.414 µM)
MIC ([1]; Neisseria gonorrhoeae, strain MMX 6996, by Micromyx): 0.27 µg/mL (≈ 0.798 µM)
MIC ([1]; Neisseria gonorrhoeae, strain MMX 6998, CIP, by Micromyx): 0.53 µg/mL (≈ 1.57 µM)
MIC ([1]; Neisseria gonorrhoeae, strain MMX 7002, CIP, by Micromyx): 0.27 µg/mL (≈ 0.798 µM)
MIC ([1]; Neisseria gonorrhoeae, strain MMX 7005, by Micromyx): 0.03 µg/mL (≈ 0.0887 µM)
MIC ([1]; Neisseria gonorrhoeae, strain WHO F): 0.06 µg/mL (≈ 0.177 µM)
MIC ([1]; Neisseria gonorrhoeae, strain WHO F, replicates 1-3): 0.066 µg/mL (≈ 0.195 µM)
MIC ([1]; Neisseria gonorrhoeae, strain WHO G, PEN, TET): 0.13 µg/mL (≈ 0.384 µM)
MIC ([1]; Neisseria gonorrhoeae, strain WHO G, replicates 1-3): 0.132 µg/mL (≈ 0.39 µM)
MIC ([1]; Neisseria gonorrhoeae, strain WHO K, CIP, PEN, TET): 0.26 µg/mL (≈ 0.768 µM)
MIC ([1]; Neisseria gonorrhoeae, strain WHO K, replicates 1-3): 0.264 µg/mL (≈ 0.78 µM)
MIC ([1]; Neisseria gonorrhoeae, strain WHO L, CIP, PEN, TET): 0.26 µg/mL (≈ 0.768 µM)
MIC ([1]; Neisseria gonorrhoeae, strain WHO L, replicates 1-3): 0.264 µg/mL (≈ 0.78 µM)
MIC ([1]; Neisseria gonorrhoeae, strain WHO M, CIP, PEN, TET): 0.13 µg/mL (≈ 0.384 µM)
MIC ([1]; Neisseria gonorrhoeae, strain WHO M, replicates 1-3): 0.132 µg/mL (≈ 0.39 µM)
MIC ([1]; Neisseria gonorrhoeae, strain WHO N, CIP, PEN, TET): 0.26 µg/mL (≈ 0.768 µM)
MIC ([1]; Neisseria gonorrhoeae, strain WHO N, replicates 1-3): 0.264 µg/mL (≈ 0.78 µM)
MIC ([1]; Neisseria gonorrhoeae, strain WHO O, PEN, TET): 0.13 µg/mL (≈ 0.384 µM)
MIC ([1]; Neisseria gonorrhoeae, strain WHO O, replicates 1-3): 0.132 µg/mL (≈ 0.39 µM)
MIC ([1]; Neisseria gonorrhoeae, strain WHO P, PEN, TET): 0.33 µg/mL (≈ 0.975 µM)
MIC ([1]; Neisseria gonorrhoeae, strain WHO U, PEN, TET): 0.13 µg/mL (≈ 0.384 µM)
MIC ([1]; Neisseria gonorrhoeae, strain WHO U, replicates 1-3): 0.132 µg/mL (≈ 0.39 µM)
MIC ([1]; Neisseria gonorrhoeae, strain WHO V, AZM, CIP, PEN, TET): 0.26 µg/mL (≈ 0.768 µM)
MIC ([1]; Neisseria gonorrhoeae, strain WHO V, replicates 1-3): 0.264 µg/mL (≈ 0.78 µM)
MIC ([1]; Neisseria gonorrhoeae, strain WHO W, CIP, PEN, TET): 0.13 µg/mL (≈ 0.384 µM)
MIC ([1]; Neisseria gonorrhoeae, strain WHO W, replicates 1-3): 0.132 µg/mL (≈ 0.39 µM)
MIC ([1]; Neisseria gonorrhoeae, strain WHO X, CIP, PEN, TET): 0.21 µg/mL (≈ 0.621 µM)
MIC ([1]; Neisseria gonorrhoeae, strain WHO X, replicates 1-3): 0.132 µg/mL (≈ 0.39 µM)
MIC ([1]; Neisseria gonorrhoeae, strain WHO Y, CIP, PEN, TET): 0.21 µg/mL (≈ 0.621 µM)
MIC ([1]; Neisseria gonorrhoeae, strain WHO Y, replicates 1-3): 0.264 µg/mL (≈ 0.78 µM)
MIC ([1]; Neisseria gonorrhoeae, strain WHO Z, CIP, PEN, TET): 0.26 µg/mL (≈ 0.768 µM)
MIC ([1]; Neisseria gonorrhoeae, strain WHO Z, replicates 1-3): 0.264 µg/mL (≈ 0.78 µM)
MIC ([1]; strain ATCC 49226, replicates 1-3): 0.169 µg/mL and 0.085 µg/mL
MIC ([1]; strain ATCC 700719, replicates 1-3): 0.169 µg/mL and 0.338 µg/mL
MIC ([1]; strain ATCC 700825, replicates 1-3): 0.042 µg/mL (≈ 0.124 µM)
MIC ([1]; strain BAA-1846, replicates 1-3): 0.042 µg/mL (≈ 0.124 µM)
MIC ([1]; strain CDC-0165, replicates 1-3): 0.677 µg/mL (≈ 2 µM)
MIC ([1]; strain CDC-0166, replicates 1-3): 0.169 µg/mL (≈ 0.499 µM)
MIC ([1]; strain CDC-0167, replicates 1-3): 0.169 µg/mL and 0.085 µg/mL
MIC ([1]; strain CDC-0169, replicates 1-3): 0.169 µg/mL (≈ 0.499 µM)
MIC ([1]; strain CDC-0170, replicates 1-3): 0.169 µg/mL (≈ 0.499 µM)
MIC ([1]; strain CDC-0171, replicates 1-3): 0.169 µg/mL (≈ 0.499 µM)
MIC ([1]; strain CDC-0172, replicates 1-3): 0.169 µg/mL (≈ 0.499 µM)
MIC ([1]; strain CDC-0173, replicates 1-3): 0.169 µg/mL (≈ 0.499 µM)
MIC ([1]; strain CDC-0174, replicates 1-3): 0.169 µg/mL (≈ 0.499 µM)
MIC ([1]; strain CDC-0175, replicates 1-3): 0.085 µg/mL (≈ 0.251 µM)
MIC ([1]; strain CDC-0176, replicates 1-3): 0.338 µg/mL (≈ 0.999 µM)
MIC ([1]; strain CDC-0177, replicates 1-3): 0.169 µg/mL (≈ 0.499 µM)
MIC ([1]; strain CDC-0178, replicates 1-3): 0.338 µg/mL (≈ 0.999 µM)
MIC ([1]; strain CDC-0179, replicates 1-3): 0.085 µg/mL (≈ 0.251 µM)
MIC ([1]; strain CDC-0180, replicates 1-3): 0.169 µg/mL (≈ 0.499 µM)
MIC ([1]; strain CDC-0181, replicates 1-3): 0.169 µg/mL (≈ 0.499 µM)
MIC ([1]; strain CDC-0182, replicates 1-3): 0.169 µg/mL (≈ 0.499 µM)
MIC ([1]; strain CDC-0183, replicates 1-3): 0.338 µg/mL (≈ 0.999 µM)
MIC ([1]; strain CDC-0184, replicates 1-3): 0.169 µg/mL (≈ 0.499 µM)
MIC ([1]; strain CDC-0185, replicates 1-3): 0.338 µg/mL and 0.169 µg/mL
MIC ([1]; strain CDC-0186, replicates 1-3): 0.169 µg/mL (≈ 0.499 µM)
MIC ([1]; strain CDC-0187, replicates 1-3): 0.338 µg/mL (≈ 0.999 µM)
MIC ([1]; strain CDC-0188, replicates 1-3): 0.169 µg/mL (≈ 0.499 µM)
MIC ([1]; strain CDC-0189, replicates 1-3): 0.085 µg/mL and 0.169 µg/mL
MIC ([1]; strain CDC-0190, replicates 1-3): 0.169 µg/mL (≈ 0.499 µM)
MIC ([1]; strain HO41, replicates 1-3): 0.169 µg/mL (≈ 0.499 µM)
MIC ([1]; strain WHO F, replicates 1-3): 0.066 µg/mL (≈ 0.195 µM)
MIC ([1]; strain WHO G, replicates 1-3): 0.132 µg/mL (≈ 0.39 µM)
MIC ([1]; strain WHO K, replicates 1-3): 0.264 µg/mL (≈ 0.78 µM)
MIC ([1]; strain WHO L, replicates 1-3): 0.264 µg/mL (≈ 0.78 µM)
MIC ([1]; strain WHO M, replicates 1-3): 0.132 µg/mL (≈ 0.39 µM)
MIC ([1]; strain WHO N, replicates 1-3): 0.264 µg/mL (≈ 0.78 µM)
MIC ([1]; strain WHO O, replicates 1-3): 0.132 µg/mL (≈ 0.39 µM)
MIC ([1]; strain WHO P, replicates 1-3): 0.529 µg/ml and 0.264 µg/ml (2×)
MIC ([1]; strain WHO U, replicates 1-3): 0.132 µg/mL (≈ 0.39 µM)
MIC ([1]; strain WHO V, replicates 1-3): 0.264 µg/mL (≈ 0.78 µM)
MIC ([1]; strain WHO W, replicates 1-3): 0.132 µg/mL (≈ 0.39 µM)
MIC ([1]; strain WHO X, replicates 1-3): 0.264 µg/mL (≈ 0.78 µM)
MIC ([1]; strain WHO Y, replicates 1-3): 0.132 µg/mL and 0.264 µg/mL
MIC ([1]; strain WHO Z, replicates 1-3): 0.264 µg/mL (≈ 0.78 µM)
inhibition at 10 µM [2]: 35%
inhibition at 10 µM [3]: -2%
Microsomal stability (t½, min) Murine ([4]; Reported value, Eurofins): >120 min
half-life ([4]; mouse, murine liver microsomes, read-out: MMS / Microsomal Stability (t1/2), murine): > 2 h
Average MLMS t½ ([4]; murine liver microsomes, average of replicates): >2 h
MLMS t½ ([4]; murine liver microsomes, individual replicates): >2 h
pIC50 (µM) reported ([5]; CYP3A midazolam, catalog reference 4873): No activity
IC50 ([5]; human, probe testosterone): > 100 µM
